Active and inactive are the calls of the source. No rule for the calls is given here.
Test system: rodent carcinogenicity bioassays, tumor incidence
Assay: CCRIS carcinogenicity studies
Outline: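 NCI-built, expert-reviewed records of carcinogenicity and related test outcomes (mutagenicity, tumor promotion/inhibition) compiled from published and report sources, historical span 1985-2011, not updated.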

Clc1ccc(Cl)cc1
carcinogen call (Species: MOUSE, Strain/Sex: B6C3F1/FEMALE, Route: GAVAGE, Dose: 0, 300, 600 MG/KG IN CORN OIL 5 D/WK FOR 103 WK, Dose: 0, 300, 600 MG/KG IN CORN OIL 5 D/WK FOR 103 WK, Tumor Site: Type of Lesion: LIVER: HEPATOCELLULAR ADENOMA, HEPATOCELLULAR CARCINOMA): active; positive | carcinogen call (Species: MOUSE, Strain/Sex: B6C3F1/MALE, Route: GAVAGE, Dose: 0, 300, 600 MG/KG IN CORN OIL 5 D/WK FOR 103 WK, Dose: 0, 300, 600 MG/KG IN CORN OIL 5 D/WK FOR 103 WK, Tumor Site: Type of Lesion: LIVER: HEPATOCELLULAR ADENOMA, HEPATOCELLULAR CARCINOMA): active; positive | carcinogen call (Species: MOUSE, Strain/Sex: CRJ:BDF1/FEMALE, Route: INHALATION, Dose: 0, 20, 75, 300 PPM 6 HR/D, 5 D/WK FOR 2 YRS (STUDY DURATION: 2 YRS), Dose: 0, 20, 75, 300 PPM 6 HR/D, 5 D/WK FOR 2 YRS (STUDY DURATION: 2 YRS), Tumor Site: Type of Lesion: LIVER: HEPATOCELLULAR ADENOMA, LIVER: HEPATOCELLULAR CARCINOMA, LIVER: HEPATOBLASTOMA, Tumor Site: Type of Lesion: LIVER: HEPATOCELLULAR ADENOMA, LIVER: HEPATOCELLULAR CARCINOMA, LIVER: HEPATOBLASTOMA): active; positive | carcinogen call (Species: MOUSE, Strain/Sex: CRJ:BDF1/MALE, Route: INHALATION, Dose: 0, 20, 75, 300 PPM 6 HR/D, 5 D/WK FOR 2 YRS (STUDY DURATION: 2 YRS), Dose: 0, 20, 75, 300 PPM 6 HR/D, 5 D/WK FOR 2 YRS (STUDY DURATION: 2 YRS), Tumor Site: Type of Lesion: LIVER: HEPATOCELLULAR CARCINOMA, LIVER: HEPATOBLASTOMA, HISTIOCYTIC SARCOMA, Tumor Site: Type of Lesion: LIVER: HEPATOCELLULAR CARCINOMA, LIVER: HEPATOBLASTOMA, HISTIOCYTIC SARCOMA): active; positive | carcinogen call (Species: RAT, Strain/Sex: F344/FEMALE, Route: GAVAGE, Dose: 0, 300, 600 MG/KG IN CORN OIL 5 D/WK FOR 103 WK, Dose: 0, 300, 600 MG/KG IN CORN OIL 5 D/WK FOR 103 WK): inactive; negative | carcinogen call (Species: RAT, Strain/Sex: F344/MALE, FEMALE, Route: INHALATION, Dose: 0, 20, 75, 300 PPM 6 HR/D, 5 D/WK FOR 2 YRS (STUDY DURATION: 2 YRS), Dose: 0, 20, 75, 300 PPM 6 HR/D, 5 D/WK FOR 2 YRS (STUDY DURATION: 2 YRS)): inactive; negative | carcinogen call (Species: RAT, Strain/Sex: F344/MALE, Route: GAVAGE, Dose: 0, 150, 300 MG/KG IN CORN OIL 5 D/WK FOR 103 WK, Dose: 0, 150, 300 MG/KG IN CORN OIL 5 D/WK FOR 103 WK, Tumor Site: Type of Lesion: KIDNEY: TUBULAR CELL ADENOCARCINOMA, TUBULAR CELL ADENOMA OR ADENOCARCINOMA): active; positive

C[CH2][Pb]([CH2]C)([CH2]C)[CH2]C
carcinogen call (Species: MOUSE, Strain/Sex: ICR/FEMALE, Route: SUBCUTANEOUS, Dose: 0, 0.1 MG IN TRICAPRYLIN AT DAYS 1 AND 7 OF AGE AND 0, 0.2 MG AT DAYS 14 AND 21 OF AGE FOR A TOTAL DOSE OF 0, 0.6 MG (ST, Dose: 0, 0.1 MG IN TRICAPRYLIN AT DAYS 1 AND 7 OF AGE AND 0, 0.2 MG AT DAYS 14 AND 21 OF AGE FOR A TOTAL DOSE OF 0, 0.6 MG (ST, Tumor Site: Type of Lesion: HEMATOPOIETIC SYSTEM: LYMPHOMA): active; positive | carcinogen call (Species: MOUSE, Strain/Sex: ICR/MALE, Route: SUBCUTANEOUS, Dose: 0, 0.1 MG IN TRICAPRYLIN ON DAYS 1 AND 7 OF AGE AND 0, 0.2 MG ON DAYS 14 AND 21 OF AGE FOR A TOTAL DOSE OF 0, 0.6 MG (ST, Dose: 0, 0.1 MG IN TRICAPRYLIN ON DAYS 1 AND 7 OF AGE AND 0, 0.2 MG ON DAYS 14 AND 21 OF AGE FOR A TOTAL DOSE OF 0, 0.6 MG (ST): inactive; negative

N#Cc1cc(Br)c(O)c(Br)c1
carcinogen call (Species: Mouse, Strain/Sex: Crl:CD-1 (ICR)BR VAF/Plus/Female (60/sex/group), Route: Oral, Dose: 0, 20, 75, 300 ppm in feed for 78-80 wk, Dose: 0, 20, 75, 300 ppm in feed for 78-80 wk, Tumor Site: Type of Lesion: Liver: Hepatocellular adenoma and carcinoma combined (0 ppm, 2/60; 300 ppm, 7/59)): active; positive at high dose only; purity 94.4% | carcinogen call (Species: Mouse, Strain/Sex: Crl:CD-1 (ICR)BR VAF/Plus/Male (60/sex/group), Route: Oral, Dose: 0, 20, 75, 300 ppm in feed for 78-80 wk, Dose: 0, 20, 75, 300 ppm in feed for 78-80 wk, Tumor Site: Type of Lesion: Liver: Hepatocellular adenoma and carcinoma combined (5/60; 16/60; 12/60; 23/60)): active; positive; purity 94.4%

O=c1[nH]cc(F)c(=O)[nH]1
carcinogen call (Species: MOUSE, Strain/Sex: B6C3F1/FEMALE, Route: ORAL, Dose: 0, 30, 60 PPM IN DRINKING WATER FOR 82 WK (STUDY DURATION: 86 WK), Dose: 0, 30, 60 PPM IN DRINKING WATER FOR 82 WK (STUDY DURATION: 86 WK)): inactive; negative | carcinogen call (Species: MOUSE, Strain/Sex: B6C3F1/MALE, Route: ORAL, Dose: 0, 30, 60 PPM IN DRINKING WATER FOR 82 WK (STUDY DURATION: 86 WK), Dose: 0, 30, 60 PPM IN DRINKING WATER FOR 82 WK (STUDY DURATION: 86 WK)): inactive; negative | carcinogen call (Species: MOUSE, Strain/Sex: BALB/FEMALE, Route: INTRAPERITONEAL, Dose: 0, 30 MG/KG IN STERILE SALINE 1/WK FOR 50 WK (STUDY DURATION: 105 WK), Tumor Site: Type of Lesion: LUNG: TUMOR, LYMPHORETICULAR SYSTEM: LYMPHOMA OR LEUKEMIA): active; positive | carcinogen call (Species: MOUSE, Strain/Sex: BALB/MALE, Route: INTRAPERITONEAL, Dose: 0, 30 MG/KG IN STERILE SALINE 1/WK FOR 50 WK (STUDY DURATION: 105 WK), Tumor Site: Type of Lesion: LUNG: TUMOR): active; positive | carcinogen call (Species: RAT, Strain/Sex: F344/FEMALE, Route: ORAL, Dose: 0, 62, 125 PPM IN DRINKING WATER FOR 111 WK (STUDY DURATION: 111 WK), Dose: 0, 62, 125 PPM IN DRINKING WATER FOR 111 WK (STUDY DURATION: 111 WK)): inactive; negative | carcinogen call (Species: RAT, Strain/Sex: F344/MALE, Route: ORAL, Dose: 0, 62, 125 PPM IN DRINKING WATER FOR 111 WK (STUDY DURATION: 111 WK), Dose: 0, 62, 125 PPM IN DRINKING WATER FOR 111 WK (STUDY DURATION: 111 WK)): inactive; negative

Nc1ncn[nH]1
carcinogen call (Species: HAMSTER, Strain/Sex: SYRIAN/FEMALE, Route: ORAL, Dose: 0, 1, 10, 100 PPM IN DIET (TOTAL DOSE: 0; 0.07; 0.6; 6.6 G/KG) FOR 822-856 D (STUDY DURATION: LIFETIME), Dose: 0, 1, 10, 100 PPM IN DIET (TOTAL DOSE: 0; 0.07; 0.6; 6.6 G/KG) FOR 822-856 D (STUDY DURATION: LIFETIME)): inactive; negative | carcinogen call (Species: HAMSTER, Strain/Sex: SYRIAN/MALE, Route: ORAL, Dose: 0, 1, 10, 100 PPM IN DIET (TOTAL DOSE: 0; 0.08; 0.8; 7.2 G/KG) FOR 885-979 D (STUDY DURATION: LIFETIME), Dose: 0, 1, 10, 100 PPM IN DIET (TOTAL DOSE: 0; 0.08; 0.8; 7.2 G/KG) FOR 885-979 D (STUDY DURATION: LIFETIME)): inactive; negative | carcinogen call (Species: MOUSE, Route: ORAL, Tumor Site: Type of Lesion: LIVER, THYROID GLAND): active; positive | carcinogen call (Species: MOUSE, Strain/Sex: NMRI/FEMALE, Route: ORAL, Dose: 0, 1, 10, 100 PPM IN DIET (TOTAL DOSE: 0; 0.17; 1.7; 18.2 G/KG) FOR 970-1027 D (STUDY DURATION: LIFETIME), Dose: 0, 1, 10, 100 PPM IN DIET (TOTAL DOSE: 0; 0.17; 1.7; 18.2 G/KG) FOR 970-1027 D (STUDY DURATION: LIFETIME)): inactive; negative | carcinogen call (Species: MOUSE, Strain/Sex: NMRI/MALE, Route: ORAL, Dose: 0, 1, 10, 100 PPM IN DIET (TOTAL DOSE: 0; 0.13; 1.3; 13.1 G/KG) FOR 1022-1028 D (STUDY DURATION: LIFETIME), Dose: 0, 1, 10, 100 PPM IN DIET (TOTAL DOSE: 0; 0.13; 1.3; 13.1 G/KG) FOR 1022-1028 D (STUDY DURATION: LIFETIME)): inactive; negative | carcinogen call (Species: RAT, Route: ORAL, Tumor Site: Type of Lesion: LIVER, THYROID GLAND): active; positive | carcinogen call (Species: RAT, Route: SUBCUTANEOUS, Tumor Site: Type of Lesion: INJECTION SITE, LIVER, THYROID GLAND, Tumor Site: Type of Lesion: INJECTION SITE, LIVER, THYROID GLAND): active; positive | carcinogen call (Species: RAT, Strain/Sex: WISTAR/FEMALE, Route: ORAL, Dose: 0, 1, 10, 100 PPM IN DIET (TOTAL DOSE: 0; 0.08; 0.8; 7.9 G/KG) FOR 1140-1143 D (STUDY DURATION: LIFETIME), Dose: 0, 1, 10, 100 PPM IN DIET (TOTAL DOSE: 0; 0.08; 0.8; 7.9 G/KG) FOR 1140-1143 D (STUDY DURATION: LIFETIME), Tumor Site: Type of Lesion: THYROID GLAND: MALIGNANT TUMOR): active; positive | carcinogen call (Species: RAT, Strain/Sex: WISTAR/MALE, Route: ORAL, Dose: 0, 1, 10, 100 PPM IN DIET (TOTAL DOSE: 0; 0.06; 0.6; 5.8 G/KG) FOR 1137-1143 D (STUDY DURATION: LIFETIME), Dose: 0, 1, 10, 100 PPM IN DIET (TOTAL DOSE: 0; 0.06; 0.6; 5.8 G/KG) FOR 1137-1143 D (STUDY DURATION: LIFETIME), Tumor Site: Type of Lesion: THYROID GLAND: MALIGNANT TUMOR): active; positive

CC1CC2OC2CC1COC(=O)C1CC2OC2CC1C (configuration not stated)
carcinogen call (Species: MOUSE, Route: DERMAL, Tumor Site: Type of Lesion: INTEGUMENTARY SYSTEM (SKIN)): active; positive
